Our source for the MIC and ED50 values is patent US5438052A, “Cephalosporin derivatives” (Hoffmann-La Roche Inc., priority 1991, dated 1995).

One assay has as its system S. marcescens 69438. As to the kind of experiment: Minimum inhibitory concentration in vitro, agar dilution method. The class given is cell-based. To be noted: Serratia marcescens, 69438. From the text: (§1) 1. Minimum Inhibitory Concentration in vitro
(§2) The activities ascertained, minimum inhibitory concentration (MIC) in μg/ml, are compiled in Table 1 hereinafter: […]

For another assay, the system named is P. aeruginosa MK1184. The assay is described as above. The class given is cell-based. Particulars: Pseudomonas aeruginosa, MK1184.
Text: as §1, §2

A further assay has as its system P. aeruginosa 27853. Described as above. To be noted: Pseudomonas aeruginosa, 27853. It counts as cell-based.
Text: as §1, §2

Another assay has as its system K. pneumoniae 418. The assay is described as above. It counts as cell-based. To be noted: Klebsiella pneumoniae, 418.
Text: as §1, §2

In a further assay the test system is E. cloacae P99. Described as above. The class given is cell-based. Particulars: Enterobacter cloacae.
Text: as §1, §2

The test system of a further assay is S. pyogenes 15. Described as above. The class given is cell-based. To be noted: Streptococcus pyogenes, 15.
Text: as §1, §2

The test system of a further assay is P. mirabilis 2117. The assay is described as above. To be noted: Proteus mirabilis, 2117. It counts as cell-based.
Text: as §1, §2

The next assay has as its system P. aeruginosa 799/WT. Described as above. To be noted: Pseudomonas aeruginosa, 799/WT. It counts as cell-based.
Text: as §1, §2

The subject of a further assay is P. aeruginosa BA. The assay is described as above. It counts as cell-based. To be noted: Pseudomonas aeruginosa.
Text: as §1, §2

The next assay deals with K. oxytoca 1082. The description is as above. The class given is cell-based. Particulars: Klebsiella oxytoca, 1082.
Text: as §1, §2

Assay [1] has as its system E. coli 25922. Described as above. The class given is cell-based. Particulars: Escherichia coli, 25922.
Text: as §1, §2

The next assay has as its system C. freundii 902. The description is as above. To be noted: Citrobacter freundii, 902. The class given is cell-based.
Text: as §1, §2

In the next assay the test system is P. vulgaris 1028. The assay is described as above. The class given is cell-based. To be noted: Proteus vulgaris, 1028.
Text: as §1, §2

A further assay has as its system S. aureus 6538. The description is as above. It counts as cell-based. Particulars: Staphylococcus aureus, 6538.
Text: as §1, §2

The next assay has as its system E. cloacae 908R. The description is as above. It counts as cell-based. To be noted: Enterobacter cloacae, 908R.
Text: as §1, §2

In the next assay the test system is E. aerogenes CF153. Described as above. The class given is cell-based. Particulars: Klebsiella aerogenes, CF153.
Text: as §1, §2

For a further assay, the system named is P. aeruginosa 799/61. Described as above. The class given is cell-based. Particulars: Pseudomonas aeruginosa, 799/61.
Text: as §1, §2

Another assay relates to E. cloacae 908SSi. Described as above. It counts as cell-based. Particulars: Enterobacter cloacae, 908SSI.
Text: as §1, §2

Assay [2] deals with E. coli 25922. As to the kind of experiment: Experimental systemic septicaemia in the mouse. It counts as in vivo. Particulars: Escherichia coli, 25922, sc, 96 h. An outline of the steps:
(§3)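 ED50 in mg/kg s.c. is the Probit-derived dose protecting half the mice, judged on survival 4 days after i.p. challenge (about 5-100× 48 h LD50) in 16-20 g albino mice, 5 per group. Dosing was s.c. in 2% Tween 80 at 1 and 3 h, plus 5 h for P. aeruginosa.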

Assay [3] deals with Pseudomonas aeruginosa BA. In words: Experimental systemic septicaemia in the mouse. It counts as in vivo. Particulars: sc, 96 h. An outline of the steps: as §3
For another assay, the system named is S. aureus Schoch. As to the kind of experiment: Experimental systemic septicaemia in the mouse. The class given is in vivo. Particulars: Staphylococcus aureus, sc, 96 h. An outline of the steps: as §3

A word on the MIC: it is the least concentration at which growth counts as inhibited. Low values mean greater potency, high ones weaker potency. For orientation: ED50 means the midpoint of the dose-response relation. A lower ED50 goes with greater potency. As for `Cc1cc(SCC2=C(C(=O)[O-])N3C(=O)[C@@H](NC(=O)/C(=N\OCc4ccc(O)c(O)c4)c4csc(N)n4)[C@H]3SC2)n2nc(CS(=O)(=O)c3ccc(O)c(O)c3)nc2n1.[Na+]` [Example 11, (6R,7R)-7-[(Z)-2-(2-amino-4-thiazolyl)-2-[[(3,4-dihydroxybenzyl)oxy]imino]acetamido]-3-[[[2-[[(3,4-dihydroxyphenyl)sulphonyl]methyl]-5-methyl-s-triazolo[1,5-a]pyrimidin-7-yl]thio]methyl]-8-oxo-5-thia-1-azabicyclo[4.2.0]oct-2-ene-2-carboxylic acid sodium salt (1:1)], the minimal inhibitory concentration (MIC) in the assay on S. marcescens 69438 was 0.25 µg/mL; with P. aeruginosa MK1184, less than 0.1 µg/mL; in the assay on P. aeruginosa 27853, less than 0.1 µg/mL; with K. pneumoniae 418, less than 0.1 µg/mL; in the assay on E. cloacae P99 it was 16 µg/mL; with S. pyogenes 15 it was 2 µg/mL. The minimum inhibitory concentration (MIC) was 0.12 µg/mL against P. mirabilis 2117; 0.12 µg/mL against P. aeruginosa 799/WT; 0.12 µg/mL against P. aeruginosa BA; less than 0.1 µg/mL against K. oxytoca 1082; less than 0.1 µg/mL against E. coli 25922 [1]; 0.12 µg/mL with C. freundii 902. Moreover, the minimum inhibitory concentration (MIC) was 0.25 µg/mL against P. vulgaris 1028; 8 µg/mL against S. aureus 6538; 2 µg/mL against E. cloacae 908R; 1 µg/mL against E. aerogenes CF153; less than 0.1 µg/mL against P. aeruginosa 799/61; 4 µg/mL in the assay with E. cloacae 908SSi. The ED50 in the assay on E. coli 25922 [2] is less than 0.05 mg/kg; in assay [3], 0.035 mg/kg; with S. aureus Schoch, 3.5 mg/kg.
